Data as given in ChEMBL document CHEMBL5042513, “Discovery of 2H-chromone-4-one based sulfonamide derivatives as potent retinoic acid receptor-related orphan receptor γt inverse agonists” (Eur J Med Chem, 2022).

Key:
[1] = target: T1, Nuclear receptor ROR-gamma (Homo sapiens, UniProt P51449); test: Displacement of BODIPY from APC-labelled RORgammat LBD (unknown origin) incubated for 1 hrs by binding assay
T1 sequence (P51449 whole entry): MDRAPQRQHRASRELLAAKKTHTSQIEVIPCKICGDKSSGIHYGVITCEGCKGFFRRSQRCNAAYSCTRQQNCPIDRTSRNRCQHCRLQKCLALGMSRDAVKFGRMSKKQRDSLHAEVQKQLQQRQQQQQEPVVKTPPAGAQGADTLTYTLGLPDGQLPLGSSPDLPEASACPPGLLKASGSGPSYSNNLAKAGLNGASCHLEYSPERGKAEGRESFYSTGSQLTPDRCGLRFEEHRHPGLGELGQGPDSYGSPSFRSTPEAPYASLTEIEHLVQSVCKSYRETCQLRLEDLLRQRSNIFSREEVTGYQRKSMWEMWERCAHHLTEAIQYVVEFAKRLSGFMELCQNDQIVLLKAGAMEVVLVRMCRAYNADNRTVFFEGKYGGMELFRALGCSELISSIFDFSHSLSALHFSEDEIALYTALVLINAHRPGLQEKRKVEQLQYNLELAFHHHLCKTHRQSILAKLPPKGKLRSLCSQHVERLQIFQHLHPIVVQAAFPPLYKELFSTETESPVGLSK

[2] = Lipophilicity, logD of the compound at pH 7.4; details: buffer
[3] = target: T1, Nuclear receptor ROR-gamma
Description: Inverse agonist activity at RORgammat (unknown origin) transfected in human Jurkat cells assessed as inhibition of RORgammat transcriptional activity incubated for 8 hrs by luciferase reporter gene assay

in vitro [4] = details: human, liver microsomes
Description: Metabolic stability in human liver microsomes assessed as half life at 10 uM in presence of NADPH by HPLC-MS/MS analysis

in vitro [5] = details: human, liver microsomes; remark: listed apart in the source
Description: Metabolic stability in human liver microsomes assessed as intrinsic clearance at 10 uM in presence of NADPH by HPLC-MS/MS analysis

[6] = Metabolic stability in human liver microsomes assessed as parent compound remaining level at 10 uM in presence of NADPH incubated for 60 mins by HPLC-MS/MS analysis
Mus musculus [7] = species: Mus musculus; test: animal or person; details: BALB/c, po, 312 h, read-out: INH
Description: Protection against imiquimod-induced psoriasis model of BALB/c mouse assessed as inhibition of psoriasis clinical score at 20 mg/kg, po administered for 13 days

in vivo [8] = details: mouse, iv, 0.3 mg/kg
in vivo [9] = details: mouse, po, 1 mg/kg
Mus musculus [10] = species: Mus musculus; test: animal or person; details: BALB/c, po, 312 h, read-out: INH; remark: listed apart in the source
Description: Protection against imiquimod-induced psoriasis model of BALB/c mouse assessed as inhibition of psoriasis clinical score at 10 mg/kg, po administered for 13 days

in vivo [11] = details: mouse, po, 1 mg/kg; remark: listed apart in the source
in vivo [12] = details: mouse, iv, 0.3 mg/kg; remark: listed apart in the source
in vivo [13] = details: mouse, po, 1 mg/kg; remark: listed apart in the source
in vivo [14] = details: mouse, iv, 0.3 mg/kg; remark: listed apart in the source
in vivo [15] = details: mouse, iv, 0.3 mg/kg; remark: listed apart in the source
in vivo [16] = details: mouse, po, 1 mg/kg; remark: listed apart in the source
in vivo [17] = details: mouse, po, 1 mg/kg; remark: listed apart in the source
in vivo [18] = details: mouse, iv, 0.3 mg/kg; remark: listed apart in the source
in vivo [19] = details: mouse, iv, 0.3 mg/kg; remark: listed apart in the source
in vivo [20] = details: mouse, iv, 0.3 mg/kg; remark: listed apart in the source
in vivo [21] = details: mouse, po, 1 mg/kg; remark: listed apart in the source

SMILES: CCc1ccc(N(C2COC2)S(=O)(=O)c2ccc3c(c2)C(=O)CC(C2CCOCC2)O3)cc1 (stereo unspecified)
- IC50 [1]: > 10 µM
- logD [2]: 2.72
- IC50 [3]: > 10 µM

SMILES: CC(C)CN(c1cccc(F)c1)S(=O)(=O)c1ccc2c(c1)C(=O)CC(C1CCOCC1)O2 (stereo unspecified)
- logD [2]: 3.5

SMILES: CCc1ccc(N(CC(C)C)S(=O)(=O)c2ccc3c(c2)C(=O)CC(C2CCN(S(C)(=O)=O)CC2)O3)cc1 (stereo unspecified)
- logD [2]: 3.31

SMILES: CCc1ccc(N(CC(C)C)S(=O)(=O)c2ccc3c(c2)C(=O)CC(C(C)C2CCOCC2)O3)cc1 (stereo unspecified)
- logD [2]: 4.93

SMILES: CCc1ccc(N(CC(C)C)S(=O)(=O)c2ccc3c(c2)C(F)CC(C2CCOCC2)O3)cc1 (stereo unspecified)
- logD [2]: 5.02

SMILES: CCc1ccc2c(c1)CC(C)CN2S(=O)(=O)c1ccc2c(c1)C(=O)CC(C1CCOCC1)O2 (stereo unspecified)
- IC50 [1]: > 10 µM
- logD [2]: 3.77
- IC50 [3]: > 10 µM

SMILES: CCc1ccc(NS(=O)(=O)c2ccc3c(c2)C(=O)CC(C2CCOCC2)O3)cc1 (stereo unspecified)
- logD [2]: 2.67

SMILES: CCc1ccc(N(CC(C)C)S(=O)(=O)c2ccc3c(c2)C(=O)CC(CC2CCOCC2)O3)cc1 (stereo unspecified)
- logD [2]: 4.53

SMILES: CC(C)CN(Cc1ccccc1C(F)(F)F)S(=O)(=O)c1ccc2c(c1)C(=O)CC(C1CCOCC1)O2 (stereo unspecified)
- logD [2]: 4.32

SMILES: Cc1ccc(N(C2CCC2)S(=O)(=O)c2ccc3c(c2)C(=O)CC(C2CCOCC2)O3)c(C)c1 (stereo unspecified)
- half-life at 10 µM (in vitro [4]): 6.2 min
- CLint scaled at 10 µM (in vitro [5]): 202 mL/min/kg
- logD [2]: 3.86
- remaining at 1 h, 10 µM [6]: 4.5%

SMILES: CCc1ccc(N(CC(C)C)S(=O)(=O)c2ccc3c(c2)C(=O)CC(C2CCN(S(=O)(=O)C4CCCC4)CC2)O3)cc1 (stereo unspecified)
- logD [2]: 4.75

SMILES: CCc1ccc(N(CC(C)C)S(=O)(=O)c2ccc3oc(C4CCOCC4)cc(=O)c3c2)cc1
- logD [2]: 4.5

SMILES: CCc1ccc(N(CC(C)C)S(=O)(=O)c2ccc3c(c2)C(=O)N(C2CCOCC2)C3)cc1
- logD [2]: 3.64

SMILES: CCc1ccc(N(CC(C)C)S(=O)(=O)c2ccc3cc(OCC4CCOCC4)c(C(=O)OC)cc3c2)cc1
- logD [2]: 6.09

SMILES: CCc1ccc(N(CC2CCC2)S(=O)(=O)c2ccc3c(c2)C(=O)CC(C2CCOCC2)O3)cc1 (stereo unspecified)
- logD [2]: 4.1

SMILES: CCc1ccc(N(CC(C)C)S(=O)(=O)c2ccc3c(c2)C(=O)CC(C2CCN(C(=O)C4CCCC4)CC2)O3)cc1 (stereo unspecified)
- logD [2]: 5.13

SMILES: CCc1ccc(N(Cc2ccccc2)S(=O)(=O)c2ccc3c(c2)C(=O)CC(C2CCOCC2)O3)cc1 (stereo unspecified)
- logD [2]: 4.84

SMILES: CCc1ccc(N(CC2CC2)S(=O)(=O)c2ccc3c(c2)C(=O)CC(C2CCOCC2)O3)cc1 (stereo unspecified)
- half-life at 10 µM (in vitro [4]): 22.3 min
- CLint scaled at 10 µM (in vitro [5]): 55.8 mL/min/kg
- logD [2]: 3.77
- remaining at 1 h, 10 µM [6]: 23%

SMILES: CCc1ccc(N(C2CCC2)S(=O)(=O)c2ccc3c(c2)C(=O)CC(C2CCOCC2)O3)cc1 (stereo unspecified)
- logD [2]: 3.78

SMILES: CCc1ccc(N(CC(C)C)S(=O)(=O)c2ccc3cc(OCC4CCOCC4)c(C(=O)OCC4CCOCC4)cc3c2)cc1
- logD [2]: 6.34

SMILES: CCc1ccc(N(CC(C)C)S(=O)(=O)c2ccc(OCC3CCOCC3)c3c2CCCC3=O)cc1
- logD [2]: 4.84

SMILES: O=C1CC(C2CCOCC2)Oc2ccc(S(=O)(=O)N3CCCC3c3ccccc3C(F)(F)F)cc21 (stereo unspecified)
- logD [2]: 3.5

SMILES: CCc1ccc(N(CC(C)C)S(=O)(=O)c2ccc3cc(OCC4CCOCC4)c(CO)cc3c2)cc1
- logD [2]: 5.1

SMILES: Cc1nc(N2CCOCC2)ccc1N(CC(C)C)S(=O)(=O)c1ccc2c(c1)C(=O)CC(C1CCOCC1)O2 (stereo unspecified)
- inhibition in vivo at 20 mg/kg (Mus musculus [7]): 77.7%
- half-life at 24 h (in vivo [8]): 56.4 min
- AUC(0-inf) at 24 h (in vivo [9]): 219 ng·h/mL
- inhibition in vivo at 10 mg/kg (Mus musculus [10]): 54.5%
- Cmax at 24 h (in vivo [11]): 82 ng/mL
- Tmax at 24 h (in vivo [12]): 61.2 min
- half-life at 10 µM (in vitro [4]): 59 min
- half-life at 24 h (in vivo [13]): 88.2 min
- AUC(0-t) at 24 h (in vivo [14]): 135 ng·h/mL
- clearance at 24 h (in vivo [15]): 30.2 mL/min/kg
- AUC(0-t) at 24 h (in vivo [16]): 212 ng·h/mL
- bioavailability at 24 h (in vivo [17]): 47%
- CLint scaled at 10 µM (in vitro [5]): 21.1 mL/min/kg
- logD [2]: 3.04
- Vd at 24 h (in vivo [18]): 1.62 L/kg
- AUC(0-inf) at 24 h (in vivo [19]): 140 ng·h/mL
- remaining at 1 h, 10 µM [6]: 50.2%
- Cmax at 24 h (in vivo [20]): 75 ng/mL
- Tmax at 24 h (in vivo [21]): 95.4 min

SMILES: CC(C)CN(c1ccc(F)cc1F)S(=O)(=O)c1ccc2c(c1)C(=O)CC(C1CCOCC1)O2 (stereo unspecified)
- logD [2]: 3.62

SMILES: CC(C)CN(C1CCc2ccc(F)cc21)S(=O)(=O)c1ccc2c(c1)C(=O)CC(C1CCOCC1)O2 (stereo unspecified)
- logD [2]: 4.03

SMILES: CC(C)CN(c1ccc(F)cc1)S(=O)(=O)c1ccc2c(c1)C(=O)CC(C1CCOCC1)O2 (stereo unspecified)
- half-life at 10 µM (in vitro [4]): 0.7 min
- CLint scaled at 10 µM (in vitro [5]): 1760 mL/min/kg
- logD [2]: 3.48
- remaining at 1 h, 10 µM [6]: 0.2%

SMILES: CC(C)CN(c1ccc(C(C)(C)C)cc1)S(=O)(=O)c1ccc2c(c1)C(=O)CC(C1CCOCC1)O2 (stereo unspecified)
- logD [2]: 4.97

SMILES: CCc1ccc(N(CC(C)C)S(=O)(=O)c2ccc3c(c2)C(=O)CC(C2CCN(C(=O)OC(C)(C)C)CC2)O3)cc1 (stereo unspecified)
- IC50 [1]: > 10 µM
- logD [2]: 5.1
- IC50 [3]: > 10 µM

SMILES: CCc1ccc(N(CC(C)C)S(=O)(=O)c2ccc3c(c2)C(=O)CC(C2(C)CCOCC2)O3)cc1 (stereo unspecified)
- logD [2]: 4.71

SMILES: CC(C)CN(c1ccccc1F)S(=O)(=O)c1ccc2c(c1)C(=O)CC(C1CCOCC1)O2 (stereo unspecified)
- logD [2]: 3.44

SMILES: CC(C)CN(c1ccc(N(C)C)cc1)S(=O)(=O)c1ccc2c(c1)C(=O)CC(C1CCOCC1)O2 (stereo unspecified)
- half-life at 10 µM (in vitro [4]): 12.8 min
- CLint scaled at 10 µM (in vitro [5]): 98.5 mL/min/kg
- logD [2]: 3.6
- remaining at 1 h, 10 µM [6]: 11.5%

SMILES: CCc1ccc(N(CC(C)C)S(=O)(=O)c2ccc3c(c2)C(=O)CC(C2CCNCC2)O3)cc1 (stereo unspecified)
- logD [2]: 2.21

SMILES: CC(C)CN(c1cc2ccccc2s1)S(=O)(=O)c1ccc2c(c1)C(=O)CC(C1CCOCC1)O2 (stereo unspecified)
- logD [2]: 4.01

SMILES: CC(C)CN(c1ccc(C#N)cc1)S(=O)(=O)c1ccc2c(c1)C(=O)CC(C1CCOCC1)O2 (stereo unspecified)
- logD [2]: 3.16

SMILES: CCc1ccc(N(CC(C)C)S(=O)(=O)c2ccc3cc(OCC4CCOCC4)c(C(=O)O)cc3c2)cc1
- IC50 [1]: > 10 µM
- logD [2]: 1.77
- IC50 [3]: > 10 µM

SMILES: Cc1ccc(NS(=O)(=O)c2ccc3c(c2)C(=O)CC(C2CCOCC2)O3)c(C)c1 (stereo unspecified)
- logD [2]: 2.75

SMILES: CCc1ccc(N(CC(F)(F)F)S(=O)(=O)c2ccc3c(c2)C(=O)CC(C2CCOCC2)O3)cc1 (stereo unspecified)
- logD [2]: 3.97

SMILES: CCS(=O)(=O)c1ccc(CNS(=O)(=O)c2ccc3c(c2)C(=O)CC(C2CCOCC2)O3)nc1 (stereo unspecified)
- IC50 [1]: > 10 µM
- logD [2]: 0.32
- IC50 [3]: > 10 µM

SMILES: CCc1ccc(N(CC(C)C)S(=O)(=O)c2ccc(OCC3CCOCC3)c(CO)c2)cc1 [GSK2981278]
- CLint scaled at 10 µM (in vitro [5]): 1610 mL/min/kg
- remaining at 1 h, 10 µM [6]: 0.2%
